Results reported in patent US12077503B2, “Substituted cyclic amides and their use as herbicides” (FMC CORPORATION, priority 2015, dated 2024).

What was measured:
Format in all cases: in vivo
[1] = system: barnyardgrass (Echinochloa crus-galli); assay: Test G Pre-Emergence Protocol; conditions: Echinochloa crus-galli, pre-emergence, 312 h, evaluated after 13 days; for pest or weed control at 15.625 g/ha: 15.625 g ai/ha, read-out: Barnyard grass damage rating (100=total damage to plant; 0=no damage to plant); for pest or weed control at 62.5 g/ha: 62.5 g ai/ha, 100=total damage to plant, 0=no damage to plant, read-out: plant damage rating, Barnyardgrass; for pest or weed control at 250 g/ha: 250 g ai/ha, read-out: Barnyardgrass damage rating (100=total damage to plant; 0=no damage to plant)
Outline: (§1)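 Pre-emergence spray, 15.625/62.5/250 g/ha, vehicle acetone:water 50:50 + 0.5% Tween 20, applied 1 d after sowing. Glasshouse 24/16° C, 14 h light, 65% RH, watered twice daily. Visual damage rating at 13 d, 0–100 scale.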

corn (Zea mays) [2] = assay: Test G Pre-Emergence Protocol; conditions: Zea mays, pre-emergence, 312 h, evaluated after 13 days; for plant injury at 15.625 g/ha: 15.625 g ai/ha; for plant injury at 15.625 g/ha / plant injury at 250 g/ha: read-out: Corn damage rating (100=total damage to plant; 0=no damage to plant); for plant injury at 62.5 g/ha: 62.5 g ai/ha, 100=total damage to plant, 0=no damage to plant, read-out: plant damage rating, Corn; for plant injury at 250 g/ha: 250 g ai/ha
Outline: as §1

[3] = system: giant foxtail (Setaria faberi); assay: Test G Pre-Emergence Protocol; conditions: Setaria faberi, pre-emergence, 312 h, evaluated after 13 days; for pest or weed control at 15.625 g/ha: 15.625 g ai/ha; for pest or weed control at 15.625 g/ha / pest or weed control at 250 g/ha: read-out: Foxtail, Giant damage rating (100=total damage to plant; 0=no damage to plant); for pest or weed control at 62.5 g/ha: 62.5 g ai/ha, 100=total damage to plant, 0=no damage to plant, read-out: plant damage rating, Foxtail, Giant; for pest or weed control at 250 g/ha: 250 g ai/ha
Outline: as §1

[4] = system: ivy-leaved morning glory (Ipomoea hederacea); assay: Test G Pre-Emergence Protocol; conditions: Ipomoea, pre-emergence, 312 h, evaluated after 13 days; for pest or weed control at 15.625 g/ha: 15.625 g ai/ha, read-out: Morning-glory, Ivy-leaved damage rating (100=total damage to plant; 0=no damage to plant); for pest or weed control at 62.5 g/ha: 62.5 g ai/ha, 100=total damage to plant, 0=no damage to plant, read-out: plant damage rating, Morningglory, Ivy-leaved; for pest or weed control at 250 g/ha: 250 g ai/ha, read-out: Morningglory, Ivy-leaved damage rating (100=total damage to plant; 0=no damage to plant)
Outline: as §1

[5] = system: redroot pigweed (Amaranthus retroflexus); assay: Test G Pre-Emergence Protocol; conditions: Amaranthus retroflexus, pre-emergence, 312 h, evaluated after 13 days; for pest or weed control at 15.625 g/ha: 15.625 g ai/ha; for pest or weed control at 15.625 g/ha / pest or weed control at 250 g/ha: read-out: Pigweed, Redroot damage rating (100=total damage to plant; 0=no damage to plant); for pest or weed control at 62.5 g/ha: 62.5 g ai/ha, 100=total damage to plant, 0=no damage to plant, read-out: plant damage rating, Pigweed, Redroot; for pest or weed control at 250 g/ha: 250 g ai/ha
Outline: as §1

[6] = system: velvetleaf (Abutilon theophrasti); assay: Test G Pre-Emergence Protocol; conditions: Abutilon theophrasti, pre-emergence, 312 h, evaluated after 13 days; for pest or weed control at 15.625 g/ha: 15.625 g ai/ha; for pest or weed control at 15.625 g/ha / pest or weed control at 250 g/ha: read-out: Velvetleaf damage rating (100=total damage to plant; 0=no damage to plant); for pest or weed control at 62.5 g/ha: 62.5 g ai/ha, 100=total damage to plant, 0=no damage to plant, read-out: plant damage rating, Velvetleaf; for pest or weed control at 250 g/ha: 250 g ai/ha
Outline: as §1

[7] = system: barnyardgrass (Echinochloa crus-galli); assay: Test G Post-Emergence Protocol; conditions: Echinochloa crus-galli, post-emergence, 312 h; for pest or weed control at 15.625 g/ha: 15.625 g ai/ha, evaluated after 13 days (100=total damage to plant; 0=no damage to plant), read-out: Barnyardgrass damage rating; for pest or weed control at 62.5 g/ha: 62.5 g ai/ha, read-out: Barnyardgrass damage rating (100=total damage to plant; 0=no damage to plant); for pest or weed control at 62.5 g/ha / pest or weed control at 250 g/ha: evaluated after 13 days; for pest or weed control at 250 g/ha: 250 g ai/ha, read-out: damage to plant, Barnyardgrass (100=total damage to plant; 0=no damage to plant)
Outline: (§2)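 Pot-grown seedlings, 8 days old, raised in a glasshouse at 24/16 °C day/night with 14 h light and 65% humidity, were sprayed post-emergence with test compound in acetone/water (50:50) plus 0.5% Tween 20 at 15.625, 62.5 or 250 g/ha. Damage was scored visually 13 days later on a 0–100 scale (100 = total damage).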

corn (Zea mays) [8] = assay: Test G Post-Emergence Protocol; conditions: Zea mays, post-emergence, 312 h; for plant injury at 15.625 g/ha: 15.625 g ai/ha, evaluated after 13 days (100=total damage to plant; 0=no damage to plant), read-out: Corn damage rating; for plant injury at 62.5 g/ha: 62.5 g ai/ha, read-out: Corn damage rating (100=total damage to plant; 0=no damage to plant); for plant injury at 62.5 g/ha / plant injury at 250 g/ha: evaluated after 13 days; for plant injury at 250 g/ha: 250 g ai/ha, read-out: damage to plant, Corn (100=total damage to plant; 0=no damage to plant)
Outline: as §2

[9] = system: giant foxtail (Setaria faberi); assay: Test G Post-Emergence Protocol; conditions: Setaria faberi, post-emergence, 312 h; for pest or weed control at 15.625 g/ha: 15.625 g ai/ha, evaluated after 13 days (100=total damage to plant; 0=no damage to plant), read-out: Foxtail, Giant damage rating; for pest or weed control at 62.5 g/ha: 62.5 g ai/ha, read-out: Foxtail, Giant damage rating (100=total damage to plant; 0=no damage to plant); for pest or weed control at 62.5 g/ha / pest or weed control at 250 g/ha: evaluated after 13 days; for pest or weed control at 250 g/ha: 250 g ai/ha, read-out: damage to plant, Foxtail, Giant (100=total damage to plant; 0=no damage to plant)
Outline: as §2

[10] = system: ivy-leaved morning glory (Ipomoea hederacea); assay: Test G Post-Emergence Protocol; conditions: Ipomoea, post-emergence, 312 h; for pest or weed control at 15.625 g/ha: 15.625 g ai/ha, evaluated after 13 days (100=total damage to plant; 0=no damage to plant), read-out: Morningglory, Ivy-leaved damage rating; for pest or weed control at 62.5 g/ha: 62.5 g ai/ha, read-out: Morningglory, Ivy-leaved damage rating (100=total damage to plant; 0=no damage to plant); for pest or weed control at 62.5 g/ha / pest or weed control at 250 g/ha: evaluated after 13 days; for pest or weed control at 250 g/ha: 250 g ai/ha, read-out: damage to plant, Morningglory, Ivy-leaved (100=total damage to plant; 0=no damage to plant)
Outline: as §2

[11] = system: redroot pigweed (Amaranthus retroflexus); assay: Test G Post-Emergence Protocol; conditions: Amaranthus retroflexus, post-emergence, 312 h; for pest or weed control at 15.625 g/ha: 15.625 g ai/ha, evaluated after 13 days (100=total damage to plant; 0=no damage to plant), read-out: Pigweed, Redroot damage rating; for pest or weed control at 62.5 g/ha: 62.5 g ai/ha, read-out: Pigweed, Redroot damage rating (100=total damage to plant; 0=no damage to plant); for pest or weed control at 62.5 g/ha / pest or weed control at 250 g/ha: evaluated after 13 days; for pest or weed control at 250 g/ha: 250 g ai/ha, read-out: damage to plant, Pigweed, Redroot (100=total damage to plant; 0=no damage to plant)
Outline: as §2

[12] = system: velvetleaf (Abutilon theophrasti); assay: Test G Post-Emergence Protocol; conditions: Abutilon theophrasti, post-emergence, 312 h; for pest or weed control at 15.625 g/ha: 15.625 g ai/ha, evaluated after 13 days (100=total damage to plant; 0=no damage to plant), read-out: Velvetleaf damage rating; for pest or weed control at 62.5 g/ha: 62.5 g ai/ha, read-out: Velvetleaf damage rating (100=total damage to plant; 0=no damage to plant); for pest or weed control at 62.5 g/ha / pest or weed control at 250 g/ha: evaluated after 13 days; for pest or weed control at 250 g/ha: 250 g ai/ha, read-out: damage to plant, Velvetleaf (100=total damage to plant; 0=no damage to plant)
Outline: as §2

Row | Compound | pest or weed control at 15.625 g/ha [1] [%] | pest or weed control at 62.5 g/ha [1] [%] | pest or weed control at 250 g/ha [1] [%] | plant injury at 15.625 g/ha (corn (Zea mays) [2]) [%] | plant injury at 62.5 g/ha (corn (Zea mays) [2]) [%] | plant injury at 250 g/ha (corn (Zea mays) [2]) [%] | pest or weed control at 15.625 g/ha [3] [%] | pest or weed control at 62.5 g/ha [3] [%] | pest or weed control at 250 g/ha [3] [%] | pest or weed control at 15.625 g/ha [4] [%] | pest or weed control at 62.5 g/ha [4] [%] | pest or weed control at 250 g/ha [4] [%] | pest or weed control at 15.625 g/ha [5] [%] | pest or weed control at 62.5 g/ha [5] [%] | pest or weed control at 250 g/ha [5] [%] | pest or weed control at 15.625 g/ha [6] [%] | pest or weed control at 62.5 g/ha [6] [%] | pest or weed control at 250 g/ha [6] [%] | pest or weed control at 15.625 g/ha [7] [%] | pest or weed control at 62.5 g/ha [7] [%] | other results
1 | CN1C[C@H](c2ccc(C(C)(C)C#N)cc2)[C@@H](C(=O)Nc2ccccc2F)C1=O (racemic) [Compound 1408] | 0 | 0 | 20 | 0 | 0 | 10 | 0 | 20 | 70 | 0 | 0 | 0 | 0 | 0 | 10 | 0 | 0 | 0 | 0 | 0 | pest or weed control at 250 g/ha [7]: 40%; plant injury at 15.625 g/ha (corn (Zea mays) [8]): 0%; plant injury at 62.5 g/ha (corn (Zea mays) [8]): 0%; plant injury at 250 g/ha (corn (Zea mays) [8]): 20%; pest or weed control at 15.625 g/ha [9]: 0%; pest or weed control at 62.5 g/ha [9]: 0%; pest or weed control at 250 g/ha [9]: 60%; pest or weed control at 15.625 g/ha [10]: 0%; pest or weed control at 62.5 g/ha [10]: 0%; pest or weed control at 250 g/ha [10]: 20%; pest or weed control at 15.625 g/ha [11]: 0%; pest or weed control at 62.5 g/ha [11]: 0%; pest or weed control at 250 g/ha [11]: 0%; pest or weed control at 15.625 g/ha [12]: 0%; pest or weed control at 62.5 g/ha [12]: 0%; pest or weed control at 250 g/ha [12]: 10%
2 | C[C@@]1(C(=O)Nc2cccc(F)c2F)C(=O)NC[C@@H]1c1ccc(C(F)(F)F)cc1 (racemic) [Compound 1405] | 0 | 0 | 0 | 0 | 0 | 0 | 0 | 0 | 0 | 0 | 0 | 0 | 0 | 0 | 0 | 0 | 0 | 0 | 0 | 0 | pest or weed control at 250 g/ha [7]: 0%; plant injury at 15.625 g/ha (corn (Zea mays) [8]): 0%; plant injury at 62.5 g/ha (corn (Zea mays) [8]): 0%; plant injury at 250 g/ha (corn (Zea mays) [8]): 0%; pest or weed control at 15.625 g/ha [9]: 0%; pest or weed control at 62.5 g/ha [9]: 0%; pest or weed control at 250 g/ha [9]: 0%; pest or weed control at 15.625 g/ha [10]: 0%; pest or weed control at 62.5 g/ha [10]: 0%; pest or weed control at 250 g/ha [10]: 0%; pest or weed control at 15.625 g/ha [11]: 0%; pest or weed control at 62.5 g/ha [11]: 0%; pest or weed control at 250 g/ha [11]: 0%; pest or weed control at 15.625 g/ha [12]: 0%; pest or weed control at 62.5 g/ha [12]: 0%; pest or weed control at 250 g/ha [12]: 0%
